Series [1] can be described thus: Dissociation constant, pKa of the compound in aqueous solution by spectrophotometry. The series is classed as physicochemical.
A short description of series [2]: Binding affinity to adenosine monophosphate in phosphate buffer by ARS competition assay at pH 7.4.
Series [3] can be described thus: Dissociation constant, pKa of the compound in aqueous solution by [11]B-NMR analysis. The series is classed as physicochemical.

What is called pKa is the pH at which an ionisable group is half protonated.

Active and inactive are the calls of the source. The rule behind the calls is not given here.

`CC1(C)OB(O)c2ccccc21`: the pKa in series [1] turned out to be 8.32.
In the case of `OB1OCc2cc(C(F)(F)F)ccc21`, the outcome in series [2] was Active.
In the case of `OB1OCCc2ccccc21` [BENZOXABORIN], the pKa in series [3] and in series [1] was 8.4 throughout.
As to `OB1OCc2ccccc21` [BENZOXABOROLE], the result in series [2] was Active. In addition, the pKa in series [3] turned out to be 7.2; in series [1] it was 7.34.

Values taken from ChEMBL document CHEMBL2034915, “Ring Structure and Aromatic Substituent Effects on the pK a of the Benzoxaborole Pharmacophore” (ACS Med Chem Lett, 2012).
